Laboratory results taken from patent EP4635958A1, “PYRIMIDINE-CONTAINING POLYCYCLIC DERIVATIVE INHIBITOR, AND PREPARATION METHOD THEREFOR AND USE THEREOF” (Shanghai Hansoh Biomedical Co., Ltd., priority 2022, dated 2024).
Counter-ions that a name gives are not always drawn. Like-named read-outs stand apart in the source and are kept apart here.

Assays:
GP2D = assay: Inhibition of proliferation of KRAS G12D mutant tumor cell line GP2D (CellTiter-Glo); details: read-out: GP2D IC50
p-ERK in AGS cells = assay: Inhibition of p-ERK in AGS cells (LANCE Ultra phospho-ERK1/2 kit); format: cell-based; details: read-out: AGS_pERK IC50
Experimental: 1. Experimental objective: The inhibition activity of the example compounds on the phosphorylated ERK level in KRAS G12D mutant cells AGS was determined. 2. Experimental instruments: • 2.1 Instruments: Envison; Pipette (Eppendorf & Rainin) • 2.2 Reagents: AGS cells were purchased from COBIOER BIOSCIENCES CO., LTD, with a catalog number of CBP60476; Phosphorylated ERK1/2 (T202-Y204) LANCE Ultra Cellular Detection Kit was purchased from PerkinElmer, with a catalog number of TRF4000M; RPMI 1640 was purchased from Gibco, with a catalog number of 22400071; FBS was purchased from Gibco, with a catalog number of 10091148; PBS was purchased from Gibco, with a catalog number of 10010023; trypsin was purchased from Gibco, with a catalog number of 25200056; cell culture plates were purchased from Corning Company, with a catalog number of 3610; White opaque OptiPlate™-384 plates were purchased from PerkinElmer, with a catalog number of 6007290. 3. Experimental method: When AGS cells were cultured to appropriate confluence, the AGS cells were collected, and the cell density was adjusted to 4 × 10^5/mL using complete culture medium. The cell suspension was plated onto a 96-well plate at 100 µL per well, and the plate was placed in the incubator at 37°C and 5% CO2 for adherent culture overnight. Solutions of the compound with different concentrations were formulated using DMSO and complete culture medium, and a vehicle control was set up. The solutions of the compound were added to the 96-well plate at 25 µL per well, and the plate was placed in the incubator at 37°C and 5% CO2 for further culture for 2 h. Then, the supernatant of the cell culture plate was discarded, 50 µL of lysis buffer was added to each well, the cells were lysed at room temperature under shaking for 30 min, then placed in a centrifuge and centrifuged at 1000 rpm for 1 min. 15 µL of supernatant was transferred to a 384-well plate, 5 µL of detection mixture was added to each well (Eu-labeled anti-ERK1/2 (T202-Y204) Antibody at a final detection concentration of 0.5 nM and ULight labeled anti-ERK1/2 Antibody at a final detection concentration of 5 nM), centrifuged at 1000 rpm for 1 min, mixed evenly, and reacted at room temperature overnight. The plate was read using Envison and the signal values at the emission wavelengths of 620 nm and 665 nm were detected using a time-resolved fluorescence program. 4. […] Graphpad Prism software was used to fit the concentration and inhibition rate to a nonlinear regression curve, so as to obtain the IC50 value. Table 5: Inhibition activity of the compounds on p-ERK in AGS cells

[1] = Pharmacokinetic determination in rats (IV and PO, plasma, LCMS/MS); format: in vivo, SD rats; details: for AUC(0-inf): read-out: AUCo-∞
Outline: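 Male SD rats (3/group), fasted overnight, dosed PO at 30 mg/kg in 10% Captisol/50 mM citrate pH 5.0 or IV at 1 mg/kg in 5% DMSO/10% Solutol HS15/85% PBS. Jugular plasma (EDTA-2K) sampled predose to 24 h; analysed by LCMS/MS.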

AsPC-1 = assay: Inhibition of proliferation of KRAS G12D mutant tumor cell line AsPC-1 (CellTiter-Glo); format: cell-based; details: Homo sapiens, ASPC1, about 72 h
Outline: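 KRAS G12D-mutant AsPC-1 cells plated overnight at 37 °C/5% CO2, then exposed to serial compound dilutions (DMSO/medium, vehicle control) for about 72 h. Viability read by CellTiter-Glo luminescence; inhibition rate vs concentration fitted by nonlinear regression for IC50.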

[2] = system: human pancreatic cancer cell line (HPAC); assay: Antitumor efficacy in mouse transplanted tumor model of human pancreatic cancer cell line (HPAC); format: in vivo, mice (BALB/c nude); details: Table 12, HPAC xenograft, 100mpk, PO*BID; for Tumor volume (mm^3, Mean ± SD) Day 0: Day 0 (baseline)
Excerpt: 8-10 week old female conventional immunodeficient mice (BALB/c nude) with a body weight of 18 g-22 g were used as experimental animals, and a transplanted tumor model of human pancreatic cancer cell line (HPAC) was used to conduct in vivo efficacy experiments to test the anti-tumor results of the example compounds after gavage administration.
The example compounds of the present invention, made in house.
A certain amount of the example compound was weighed, and an appropriate amount of 10% vehicle (Solutol HS15) was added. The mixture was stirred on a magnetic stirrer for 0.5 h to formulate a homogeneous suspension at the desired concentration.
Human pancreatic cancer cell line (HPAC) was derived from COBIOER BIOSCIENCES CO., LTD, cultured on DMEM/F12 medium (Gibco, 11330-032) supplemented with 10% fetal calf serum (Gibco, 10091-148), 1×Insulin (51500-056, Gibco) and 10 ng/ml of EGF (PHG0311, Gibco) and observed under a microscope (Thermo Fisher, 311). The cells were routinely passaged when the cells reached 80%-90% confluence in the culture flask. The passaged cells were cultured in a 37°C, 5% CO2 incubator (Thermo Fisher, 311).
Under aseptic conditions, human pancreatic cancer cells (HPAC) in the logarithmic growth phase were harvested using 0.25% trypsin-EDTA (Gibco, 25200-056), washed and resuspended with phosphate buffer. The cell suspension was mixed with Matrigel (Corning, 356234) at a 1 : 1 ratio (v/v) and implanted subcutaneously into the right anterior dorsal region of immunodeficient mice (BALB/c nude). Each mouse was inoculated with 3*10^6 cells in a volume of 100 microliters (µL). After inoculation, when the tumor volume reached 100-200 mm^3, the mice would be evenly randomized into 5 groups based on the tumor size, with 5 mice per group, for in vivo efficacy experiments. The negative control group was the vehicle group.
Mode of administration: The example compounds were administered orally.
Twice a week, the long and short diameters of the tumor were measured using a vernier caliper, and the tumor volume (mm^3) was calculated using the formula: V = 0.5*D*d*d, where D and d are the long and short diameters of the tumor, respectively. The anti-tumor efficacy was determined by dividing the average increase in tumor volume of compound-treated animals by the average increase in tumor volume of untreated animals. The calculation formula for tumor inhibition rate was: When there is no tumor regression, TGI(%) = 100-[(Vt-V0) administration group/(Vt-V0) vehicle control group]*100%. When tumor regression occurs, TGI(%) = [1-(Vt-V0) administration group/V0 vehicle control group]*100%. All animals were euthanized after the experiment.

[3] = system: human colorectal cancer cell line (GP2D); assay: Anti-tumor efficacy in mouse transplanted tumor model of human colorectal cancer cell line (GP2D); format: in vivo, mice (BALB/c nude)
[4] = Pharmacokinetic determination in mice (IV and PO, plasma, LCMS/MS); format: in vivo, Balb/c mice; details: male, Balb/c, mouse, in vivo
Outline: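 Male Balb/c mice, fasted overnight (n=3 per route): PO 30 mg/kg in 10% Captisol/50 mM citrate pH 5.0, or IV 1 mg/kg in 5% DMSO/10% Solutol HS15/85% PBS. Orbital blood sampled predose to 24 h; EDTA plasma analysed by LC-MS/MS.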

[5] = male, SD, rat, in vivo, iv, 1 mg/kg
[6] = male, SD, rat, in vivo, po, 30 mg/kg

For `[2H]C([2H])([2H])[C@@H]1Oc2nc(-c3cc(O)cc4ccc(F)c(C#C)c34)c(F)c3nc(OCC4(CN5CCC(=NOC)CC5)CC4)nc(c23)N2C[C@H]3CC[C@H](N3)[C@@H]12` [Example 338, 1-((1-((((5S,5aS,6S,9R)-2-(8-ethynyl-7-fluoro-3-hydroxynaphthalen-1-yl)-1-fluoro-5-deuteratedmethyl-5a,6,7,8,9,10-hexahydro-5H-4-oxa-3,10a,11,13, 14-pentaaza-6,9-methylenenaphtho[1,8-ab]heptalen-12-yl)oxo)methyl)cyclopropyl)methyl)piperidin-4-one O-methyloxime formate], the IC50 (GP2D; Homo sapiens, GP2d, 72 h) was 0.34 nM and the IC50 (p-ERK in AGS cells; Homo sapiens, AGS cells, 2 h with compound) was 2.8 nM.

For `C#Cc1c(F)ccc2cc(O)cc(-c3nc4c5c(nc(OCC6(CN7CCC(=CF)CC7)CC6)nc5c3F)N3C[C@H]5CC[C@H](N5)[C@H]3[C@H](CC)O4)c12` [Example 137, 4-((5S,5aS,6S,9R)-12-((1-((4-(fluoromethylene)piperidin-1-yl)methyl)cyclopropyl)methoxy)-5-ethyl-1-fluoro-5a,6,7,8,9,10-hexahydro-5H-4-oxa-3,10a,11,13,14-pentaaza-6,9-methylnaphtho[1,8-ab]hept-2-yl)-5-ethynyl-6-fluoronaphthalen-2-ol], the IC50 (GP2D; Homo sapiens, GP2d, 72 h) was 0.41 nM, the IC50 (p-ERK in AGS cells; Homo sapiens, AGS, 2 h) was 5.8 nM and the F ([1]; PO 30 mg/kg vs IV 1 mg/kg, male SD rats) was 9.7%. It also gave an AUC(0-inf) ([1]; rat, in vivo, IV, 1 mg/kg, male SD rats, overnight fasting, plasma) of 0.793 µg·h/mL, a C0 ([1]; rat, in vivo, IV, 1 mg/kg, male SD rats, overnight fasting, plasma, read-out: C0) of 1.63 µg/mL and a clearance ([1]; rat, in vivo, IV, 1 mg/kg, male SD rats, overnight fasting, plasma, read-out: CL) of 1.26 L/h/kg. For the same compound, the half-life ([1]; rat, in vivo, IV, 1 mg/kg, male SD rats, overnight fasting, plasma, read-out: T1/2 (converted)) was 11.3 h, the AUC(0-inf) ([1]; rat, in vivo, PO, 30 mg/kg, male SD rats, overnight fasting, plasma) was 2.11 µg·h/mL and the Cmax ([1]; rat, in vivo, PO, 30 mg/kg, male SD rats, overnight fasting, plasma, read-out: Cmax) was 0.271 µg/mL. For the same compound, the half-life ([1]; rat, in vivo, PO, 30 mg/kg, male SD rats, overnight fasting, plasma, read-out: T1/2 (converted)) was 6.2 h and the Tmax ([1]; rat, in vivo, PO, 30 mg/kg, male SD rats, overnight fasting, plasma, read-out: Tmax) was 4 h.

For `[2H]C([2H])([2H])[C@@H]1Oc2nc(-c3cc(N)cc(Cl)c3C(F)(F)F)c(F)c3nc(OC([2H])([2H])C4(C([2H])([2H])N5CCC(=NOC)CC5)CC4)nc(c23)N2C[C@H]3CC[C@H](N3)[C@@H]12` [Example 341, 1-((1-((((5S,5aS,6S,9R)-2-(5-amino-3-chloro-2-(trifluoromethyl)phenyl)-1-fluoro-5-(methyl-d3)-5a,6,7,8,9,10-hexahydro-5H-4-oxa-3,10a,11,13,14-pentaaza-6,9-methylnaphtho[1,8-ab]heptene-12-yl)oxy)methyl-d2)cyclopropyl)methyl-d2)piperidin-4-one O-methyloxime], the IC50 (GP2D; Homo sapiens, GP2d, 72 h) was 0.1 nM, the IC50 (AsPC-1) was 2.6 nM and the IC50 (p-ERK in AGS cells; Homo sapiens, AGS, 2 h) was 4.2 nM. The “Tumor volume (mm^3, Mean ± SD) Day 0” value [2] was 469 mm^3, the “TGI(%) Day 14” value [2] was 161.42% and the “ΔT/ΔC(%) Day 14” value [2] was 18.73%. For the same compound, the “Tumor volume (mm^3, Mean ± SD) Day 21” value [2] was 180 mm^3.

In the case of `C#Cc1c(F)ccc2cc(O)cc(-c3ncc4c(N5CC6CCC(C5)N6)nc(OC[C@@]56CCCN5C[C@H](F)C6)nc4c3F)c12` [MRTX-1133, reference compound], the “Tumor volume (mm^3, Mean ± SD) Day 0” value ([3]; 10mpk, IV*BID, Day 0) is reported as 167 mm^3, the “TGI(%) Day 14” value ([3]; 10mpk, IV*BID, Day 14) is reported as 143.79% and the “Tumor volume (mm^3, Mean ± SD) Day 14” value ([3]; 10mpk, IV*BID, Day 14) is reported as 94 mm^3. For the same compound, the “ΔT/ΔC(%) Day 14” value ([3]; 10mpk, IV*BID, Day 14) was 11.89%, the “tumor inhibition effect (in words)” value ([3]; intravenous administration dose of 10 mg/kg) was “inhibition effect of tumor regression” and the AUC ([4]; iv, 1 mg/kg) was 0.305 µg·h/mL. For the same compound, the C0 ([4]; iv, 1 mg/kg) was 0.854 µg/mL, the clearance ([4]; iv, 1 mg/kg) was 3.3 L/h/kg and the half-life ([4]; iv, 1 mg/kg) was 11.1 h. For the same compound, the Cmax ([4]; po, 30 mg/kg) was 0.011 µg/mL, the Tmax ([4]; po, 30 mg/kg) was 2 h and the AUC [1, 5] was 0.367 µg·h/mL. For the same compound, the C0 [1, 5] was 2.49 µg/mL, the clearance [1, 5] was 2.7 L/h/kg and the half-life [1, 5] was 2.7 h. It also gave a Cmax [1, 6] of 0.011 µg/mL and a Tmax [1, 6] of 2 h.

For “3-chloro-5-((5S,5aS,6R,9S)-5-ethyl-1-fluoro-12-((1-((4-(fluoromethylene)piperidin-1-yl)methyl-d2)cyclopropyl)methoxy-d2)-5a,6,7,8,9,10-hexahydro-5H-4-oxa-3,10a,11,13,14-pentaaza-6,9-methylnaphtho[1,8-ab]hept-2-yl)-4-(trifluoromethyl)aniline [Example 330]”, the IC50 (GP2D; proliferation, about 72 h, CellTiter-Glo) was 0.17 nM, the IC50 (p-ERK in AGS cells; AGS cells, 2 h with compound) was 3.8 nM and the “Tumor volume (mm^3, Mean ± SD) Day 0” value [2] was 468 mm^3. The “TGI(%) Day 14” value [2] was 110.18%, the “ΔT/ΔC(%) Day 14” value [2] was 43.78% and the “Tumor volume (mm^3, Mean ± SD) Day 21” value [2] was 418 mm^3.
